Assay results taken from PubChem BioAssay AID248 (DTP/NCI, 2004).
Where “and” joins values, the source holds several entries; their conditions need not be identical. Equal entries are not always repeated. Toxic doses and inconclusive results are not listed. Rule as the data show it: active = T/C of 150% or more; inactive = T/C below 125%.

Test system: L1210 leukemia ip in BDF1 mice, survival T/C
Test: NCI In Vivo Anticancer Drug Screen. Data for tumor model L1210 Leukemia (intraperitoneal) in B6D2F1 (BDF1) mice
Conditions: higher = longer survival
In short: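 Read-out is survival time, reported as the treated-group measurement over the vehicle-control measurement.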

[1] = endpoint: mean survival time, dose: 100.0 mg/kg/injection, schedule: Q01DX001 (ip), vehicle: saline
[2] = endpoint: mean survival time, dose: 100.0 mg/kg/injection, schedule: Q04DX003 (ip), vehicle: saline
[3] = endpoint: mean survival time, dose: 200.0 mg/kg/injection, schedule: Q01DX001 (ip), vehicle: saline
[4] = endpoint: mean survival time, dose: 200.0 mg/kg/injection, schedule: Q04DX003 (ip), vehicle: saline
[5] = endpoint: mean survival time, dose: 400.0 mg/kg/injection, schedule: Q01DX001 (ip), vehicle: saline
[6] = endpoint: mean survival time, dose: 400.0 mg/kg/injection, schedule: Q01DX009 (ip), vehicle: saline
[7] = endpoint: mean survival time, dose: 400.0 mg/kg/injection, schedule: Q04DX003 (ip), vehicle: saline
[8] = endpoint: mean survival time, dose: 100.0 mg/kg/injection, schedule: Q01DX009 (ip), vehicle: saline
[9] = endpoint: mean survival time, dose: 200.0 mg/kg/injection, schedule: Q01DX009 (ip), vehicle: saline

Measured: T/C

O=C1C=CN(C2OC(CO)C(O)C2O)C(=O)C1 (configuration not stated)
inactive: endpoint: mean survival time, dose: 0.75 mg/kg/injection, schedule: Q01DX009 (ip), vehicle: saline 117 % of control | endpoint: mean survival time, dose: 1.5 mg/kg/injection, schedule: Q01DX009 (ip), vehicle: saline 117 % of control | endpoint: mean survival time, dose: 4.8 mg/kg/injection, schedule: Q01DX009 (ip), vehicle: saline 120 % of control | endpoint: mean survival time, dose: 7.8 mg/kg/injection, schedule: Q01DX005 (ip), vehicle: other 107 % of control | endpoint: mean survival time, dose: 15.75 mg/kg/injection, schedule: Q01DX005 (ip), vehicle: other 116 % of control | endpoint: mean survival time, dose: 22.0 mg/kg/injection, schedule: Q01DX009 (ip), vehicle: saline 124 % of control | endpoint: mean survival time, dose: 31.25 mg/kg/injection, schedule: Q01DX005 (ip), vehicle: other 123 % of control | endpoint: mean survival time, dose: 62.5 mg/kg/injection, schedule: Q01DX005 (ip), vehicle: other 124 % of control | [1] 105 % of control | [2] 108 % of control | [3] 114 % of control | [4] 119 % of control | [5] 105 % of control | [6] 115 % of control | [7] 116 % of control | endpoint: median survival time, dose: 6.25 mg/kg/injection, schedule: Q01DX009 (ip), vehicle: saline 122 % of control | endpoint: median survival time, dose: 12.5 mg/kg/injection, schedule: Q01DX009 (ip), vehicle: saline 122 % of control | endpoint: median survival time, dose: 16.0 mg/kg/injection, schedule: Q03HX008 (ip), vehicle: saline 105 % of control | endpoint: median survival time, dose: 16.0 mg/kg/injection, schedule: Q03HX016 (ip), vehicle: saline 103 % of control | endpoint: median survival time, dose: 32.0 mg/kg/injection, schedule: Q01DX009 (sc), vehicle: saline 118 % of control | endpoint: median survival time, dose: 32.0 mg/kg/injection, schedule: Q03HX008 (ip), vehicle: saline 106 % of control | endpoint: median survival time, dose: 32.0 mg/kg/injection, schedule: Q03HX016 (ip), vehicle: saline 101 % of control | endpoint: median survival time, dose: 64.0 mg/kg/injection, schedule: Q01DX009 (sc), vehicle: saline 123 % of control | endpoint: median survival time, dose: 64.0 mg/kg/injection, schedule: Q03HX008 (ip), vehicle: saline 103 % of control | endpoint: median survival time, dose: 64.0 mg/kg/injection, schedule: Q03HX016 (ip), vehicle: saline 103 % of control | endpoint: median survival time, dose: 64.0 mg/kg/injection, schedule: Q04DX003 (ip), vehicle: saline 103 % of control | endpoint: median survival time, dose: 74.0 mg/kg/injection, schedule: Q01DX009 (oral), vehicle: saline 116 % of control | endpoint: median survival time, dose: 110.0 mg/kg/injection, schedule: Q01DX009 (oral), vehicle: saline 100 % of control | endpoint: median survival time, dose: 128.0 mg/kg/injection, schedule: Q01DX001 (ip), vehicle: saline 98 % of control | endpoint: median survival time, dose: 128.0 mg/kg/injection, schedule: Q01DX009 (oral), vehicle: saline 111 % of control | endpoint: median survival time, dose: 128.0 mg/kg/injection, schedule: Q03HX008 (ip), vehicle: saline 108 % of control | endpoint: median survival time, dose: 128.0 mg/kg/injection, schedule: Q03HX016 (ip), vehicle: saline 110 % of control | endpoint: median survival time, dose: 128.0 mg/kg/injection, schedule: Q04DX003 (ip), vehicle: saline 104 % of control | endpoint: median survival time, dose: 128.0 mg/kg/injection, schedule: Q04DX003 (oral), vehicle: saline 104 % of control and 110 % of control | endpoint: median survival time, dose: 128.0 mg/kg/injection, schedule: Q04DX003 (sc), vehicle: saline 112 % of control | endpoint: median survival time, dose: 128.0 mg/kg/injection, schedule: Q08DX002 (ip), vehicle: saline 94 % of control | endpoint: median survival time, dose: 164.0 mg/kg/injection, schedule: Q01DX009 (oral), vehicle: saline 111 % of control | endpoint: median survival time, dose: 170.0 mg/kg/injection, schedule: Q04DX003 (ip), vehicle: saline 111 % of control | endpoint: median survival time, dose: 248.0 mg/kg/injection, schedule: Q01DX009 (oral), vehicle: saline 100 % of control | endpoint: median survival time, dose: 256.0 mg/kg/injection, schedule: Q01DX001 (ip), vehicle: saline 105 % of control | endpoint: median survival time, dose: 256.0 mg/kg/injection, schedule: Q01DX009 (oral), vehicle: saline 107 % of control and 110 % of control | endpoint: median survival time, dose: 256.0 mg/kg/injection, schedule: Q03HX008 (ip), vehicle: saline 116 % of control | endpoint: median survival time, dose: 256.0 mg/kg/injection, schedule: Q03HX016 (ip), vehicle: saline 122 % of control | endpoint: median survival time, dose: 256.0 mg/kg/injection, schedule: Q04DX003 (ip), vehicle: saline 112 % of control | endpoint: median survival time, dose: 256.0 mg/kg/injection, schedule: Q04DX003 (oral), vehicle: saline 117 % of control and 123 % of control | endpoint: median survival time, dose: 256.0 mg/kg/injection, schedule: Q04DX003 (sc), vehicle: saline 120 % of control | endpoint: median survival time, dose: 256.0 mg/kg/injection, schedule: Q08DX002 (ip), vehicle: saline 97 % of control | endpoint: median survival time, dose: 260.0 mg/kg/injection, schedule: Q04DX003 (ip), vehicle: saline 111 % of control | endpoint: median survival time, dose: 512.0 mg/kg/injection, schedule: Q01DX001 (ip), vehicle: saline 100 % of control | endpoint: median survival time, dose: 512.0 mg/kg/injection, schedule: Q01DX009 (oral), vehicle: saline 97 % of control and 100 % of control | endpoint: median survival time, dose: 512.0 mg/kg/injection, schedule: Q04DX003 (ip), vehicle: saline 122 % of control | endpoint: median survival time, dose: 512.0 mg/kg/injection, schedule: Q04DX003 (oral), vehicle: saline 105 % of control | endpoint: median survival time, dose: 512.0 mg/kg/injection, schedule: Q04DX003 (sc), vehicle: saline 119 % of control | endpoint: median survival time, dose: 512.0 mg/kg/injection, schedule: Q08DX002 (ip), vehicle: saline 95 % of control | endpoint: median survival time, dose: 580.0 mg/kg/injection, schedule: Q04DX003 (ip), vehicle: saline 111 % of control | endpoint: median survival time, dose: 600.0 mg/kg/injection, schedule: Q01DX009 (ip), vehicle: saline 110 % of control | endpoint: median survival time, dose: 1024.0 mg/kg/injection, schedule: Q01DX001 (ip), vehicle: saline 101 % of control | endpoint: median survival time, dose: 1024.0 mg/kg/injection, schedule: Q01DX009 (oral), vehicle: saline 95 % of control | endpoint: median survival time, dose: 1024.0 mg/kg/injection, schedule: Q08DX002 (ip), vehicle: saline 106 % of control | endpoint: median survival time, dose: 2048.0 mg/kg/injection, schedule: Q01DX001 (ip), vehicle: saline 111 % of control | endpoint: median survival time, dose: 2048.0 mg/kg/injection, schedule: Q08DX002 (ip), vehicle: saline 119 % of control
active: endpoint: mean survival time, dose: 112.0 mg/kg/injection, schedule: Q03HX024 (ip), vehicle: saline 176 % of control | endpoint: median survival time, dose: 26.0 mg/kg/injection, schedule: Q03HX024 (ip), vehicle: saline 150 % of control | endpoint: median survival time, dose: 128.0 mg/kg/injection, schedule: Q01DX009 (ip), vehicle: saline 156 % of control | endpoint: median survival time, dose: 256.0 mg/kg/injection, schedule: Q01DX009 (ip), vehicle: saline 180 % of control | endpoint: median survival time, dose: 400.0 mg/kg/injection, schedule: Q01DX009 (ip), vehicle: saline 155 % of control

C=CCSc1ccccc1Cl
inactive: [1] 100 % of control | [3] 103 % of control | [5] 103 % of control

COc1cc2c(c(OC)c1OC)CCNC2
inactive: endpoint: mean survival time, dose: 5.0 mg/kg/injection, schedule: Q01DX001 (ip), vehicle: saline 100 % of control | endpoint: mean survival time, dose: 10.0 mg/kg/injection, schedule: Q01DX001 (ip), vehicle: saline 100 % of control | endpoint: mean survival time, dose: 20.0 mg/kg/injection, schedule: Q01DX001 (ip), vehicle: saline 100 % of control | endpoint: mean survival time, dose: 40.0 mg/kg/injection, schedule: Q01DX001 (ip), vehicle: saline 101 % of control

C#CC(C)(C)OCC1CO1 (configuration not stated)
inactive: endpoint: mean survival time, dose: 25.0 mg/kg/injection, schedule: Q01DX009 (ip), vehicle: saline 93 % of control | endpoint: mean survival time, dose: 25.0 mg/kg/injection, schedule: Q04DX003 (ip), vehicle: saline 101 % of control | endpoint: mean survival time, dose: 50.0 mg/kg/injection, schedule: Q01DX009 (ip), vehicle: saline 90 % of control | endpoint: mean survival time, dose: 50.0 mg/kg/injection, schedule: Q04DX003 (ip), vehicle: saline 113 % of control | [8] 102 % of control | [2] 108 % of control | [9] 108 % of control | [4] 95 % of control | [6] 93 % of control | [7] 106 % of control

COC(=O)CCC(NC(=O)C1CCN(C(=O)OCc2ccccc2)CC1)C(=O)OC (configuration not stated)
inactive: [1] 99 % of control | [8] 103 % of control | endpoint: mean survival time, dose: 100.0 mg/kg/injection, schedule: Q04DX003 (ip), vehicle: acetone 95 % of control | [3] 100 % of control | [9] 102 % of control | endpoint: mean survival time, dose: 200.0 mg/kg/injection, schedule: Q04DX003 (ip), vehicle: acetone 98 % of control | [5] 94 % of control | [6] 103 % of control | endpoint: mean survival time, dose: 400.0 mg/kg/injection, schedule: Q04DX003 (ip), vehicle: acetone 98 % of control

N#Cc1ccc(OC(=O)c2ccc(N=C(N)N)cc2)cc1
inactive: [8] 94 % of control | [2] 96 % of control | [9] 91 % of control | [4] 93 % of control | [7] 88 % of control
